This note sets out measurements from the supplement of paper PMC11061612.

The test system of assay [1] is RT-112 (Bladder Carcinoma). In words: Bliss excess, mean over the matrix (fraction); higher = more synergy. Summed up:
(§1)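 Bliss excess equals the observed combination effect minus the expected value EA + EB − EA·EB, where EA and EB are the effects of each agent alone. Combination Emax is the second-highest inhibition within the matrix. Inhibition was scaled from CellTiter-Glo 2.0 luminescence, with 0 set by vehicle wells and 1 by blank wells, after 72 hours of two-drug dosing of cells plated in 1536-well plates.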

In assay [2] the test system is SUP-T1 (T-Lymphoblastic Leukemia). The assay is described as above. The method in brief:
as §1

Assay [3] has as its system LU-139 (Small Cell Lung Carcinoma). The assay is described as above. The method in brief: as §1
Assay [4] concerns NCI-H2795 (Mesothelioma). The description is as above. Summed up:
as §1

Assay [5] concerns NCI-H69 (Small Cell Lung Carcinoma). The assay is described as above. The method in brief:
as §1

The subject of assay [6] is 8305C (Thyroid Gland Carcinoma). The assay is described as above. Summed up:
as §1

The next assay relates to Mewo (Melanoma). Described as above. The method in brief:
as §1

Assay [7] has as its system SW1271 (Small Cell Lung Carcinoma). The description is as above. Summed up: as §1
The next assay concerns HMV-II (Melanoma). The assay is described as above. The method in brief: as §1
For assay [8], the system named is K5 (Thyroid Gland Carcinoma). The assay is described as above. Summed up: as §1
Another assay concerns NCI-H2461 (Mesothelioma). In words: combination Emax (second highest fraction inhibited in the dose matrix, 72 h); higher = more inhibition; extreme values may be limits of the assay. The method in brief:
as §1

Assay [9] deals with SUP-T1 (T-Lymphoblastic Leukemia). The assay is described as above. Summed up: as §1
A further assay relates to NCI-H28 (Mesothelioma). Described as above. Summed up: as §1
In assay [10] the test system is NCI-H2795 (Mesothelioma). The assay is described as above. The method in brief: as §1
Assay [11] has as its system CAL-54 (Kidney Carcinoma). Described as above. The method in brief: as §1
For assay [12], the system named is HARA (Squamous Cell Lung Carcinoma). The description is as above. The method in brief: as §1
Assay [13] concerns LoVo (Colorectal Carcinoma). Described as above. The method in brief:
as §1

Assay [14] has as its system HDLM-2 (Hodgkin's Lymphoma). The assay is described as above. The method in brief:
as §1

For assay [15], the system named is MDA-MB-468 (Breast Carcinoma). The description is as above. The method in brief: as §1
Assay [16] concerns CAPAN-1 (Pancreatic Carcinoma). Described as above. Summed up:
as §1

Turning to `Cc1c2c(nn1C)CSCc1cc(n(C)n1)CSc1cc(c3ccccc3c1)OCCCc1c(C(=O)O)n(C)c3c-2c(Cl)ccc13` [AZD5991] + Nc1ccn([C@@H]2O[C@H](CO)[C@@H](O)C2(F)F)c(=O)n1 [Gemcitabine] (first compound max 1 µM, 7x7, partner max 0.3 µM), the Bliss excess in [1] was 0.0012; in assay [2], -0.0332; in assay [3] it was -0.0133; in the assay with NCI-H2795 (Mesothelioma) [4], -0.0687; in [5], -0.0178; in assay [6], -0.121. Besides, the Bliss excess is -0.0395 in the assay with Mewo (Melanoma), -0.0354 in assay [7], 0.0013 with HMV-II (Melanoma) and -0.045 in [8]. The “combination Emax” value in the assay on NCI-H2461 (Mesothelioma) stood at 0.553; in assay [9], 0.77; in the assay on NCI-H28 (Mesothelioma) it was 0.684; with NCI-H2795 (Mesothelioma) [10], 0.869; in assay [11] it was 0.724; in [12] it was 0.81. The “combination Emax” value in assay [13] was determined as 0.713; in assay [14], 0.967; in assay [15] it was 0.707; in assay [16] it was 0.608.

In the case of `C[C@@H](Nc1cc(F)cc(F)c1)c1cc(C(=O)N(C)C)cc2c(=O)cc(N3CCOCC3)oc12` [AZD8186] + C1CN(CCC1(C(=O)N[C@@H](CCO)C2=CC=C(C=C2)Cl)N)C3=NC=NC4=C3C=CN4 [AZD5363] (first compound max 10 µM, 7x7, partner max 10 µM), the Bliss excess is -0.0188 in [1]; -0.0718 in [2]; -0.0299 in [3]; -0.106 with NCI-H2795 (Mesothelioma) [4]; -0.0566 in [5]; -0.0642 in assay [6]. The Bliss excess was -0.001 in the assay on Mewo (Melanoma), -0.0388 in assay [7], -0.0515 in the assay on HMV-II (Melanoma) and -0.062 in [8]. Moreover, the “combination Emax” value is 0.457 in the assay with NCI-H2461 (Mesothelioma); 0.553 in assay [9]; 0.359 in the assay on NCI-H28 (Mesothelioma); 0.409 in the assay with NCI-H2795 (Mesothelioma) [10]; 0.683 in assay [11]; 0.467 in [12]. Moreover, the “combination Emax” value in [13] was 0.644; in [14], 0.235; in [15], 0.571; in assay [16], 0.204.

Turning to `Cc1c2c(nn1C)CSCc1cc(n(C)n1)CSc1cc(c3ccccc3c1)OCCCc1c(C(=O)O)n(C)c3c-2c(Cl)ccc13` [AZD5991] + CS(=O)(=O)CCNCc1ccc(-c2ccc3ncnc(Nc4ccc(OCc5cccc(F)c5)c(Cl)c4)c3c2)o1 [Lapatinib] (first compound max 1 µM, 7x7, partner max 10 µM), the Bliss excess in [1] is 0.0426; in [2] it was -0.0863; in assay [3], -0.0068; in the assay with NCI-H2795 (Mesothelioma) [4], -0.016; in assay [5], -0.0745; in assay [6], -0.042. For the same molecule, the Bliss excess with Mewo (Melanoma) is -0.013; in assay [7] it was -0.0749; in the assay on HMV-II (Melanoma) it was -0.0587; in assay [8] it was -0.0063. In addition, the “combination Emax” value in the assay with NCI-H2461 (Mesothelioma) was determined as 0.332; in assay [9], 0.488; in the assay on NCI-H28 (Mesothelioma) it was 0.337; in the assay on NCI-H2795 (Mesothelioma) [10] it was 0.877; in assay [11] it was 0.529; in [12], 0.786. Besides, the “combination Emax” value in [13] amounted to 0.491; in [14], 0.961; in assay [15] it was 0.851; in [16], 0.261.

As to `N#Cc1cnc(Nc2cc(NC[C@H]3CNCCO3)c(C(F)(F)F)cn2)cn1` [SRA737] + Nc1ccn([C@@H]2O[C@H](CO)[C@@H](O)C2(F)F)c(=O)n1 [Gemcitabine] (first compound max 10 µM, 7x7, partner max 0.3 µM), the Bliss excess was 0.178 in assay [1]; -0.0658 in [2]; 0.0091 in [3]; -0.0258 with NCI-H2795 (Mesothelioma) [4]; -0.0077 in assay [5]; -0.0158 in assay [6]. Also, the Bliss excess in the assay with Mewo (Melanoma) is -0.0047; in assay [7], 0.0198; in the assay with HMV-II (Melanoma), -0.0122; in [8] it was 0.0428. Moreover, the “combination Emax” value in the assay with NCI-H2461 (Mesothelioma) stood at 0.683; in assay [9], 0.806; with NCI-H28 (Mesothelioma), 0.761; in the assay on NCI-H2795 (Mesothelioma) [10], 0.804; in assay [11], 0.792; in assay [12], 0.902. Also, the “combination Emax” value in assay [13] was 0.789; in [14] it was 0.854; in assay [15], 0.752; in [16], 0.657.

For `C[C@@H](Oc1cc(-c2cnn(C3CCNCC3)c2)cnc1N)c1c(Cl)ccc(F)c1Cl` [Crizotinib] + CC1=C(C(=CC=C1)Cl)NC(=O)C2=CN=C(S2)NC3=CC(=NC(=N3)C)N4CCN(CC4)CCO [Dasatinib] (first compound max 10 µM, 7x7, partner max 2 µM), the Bliss excess in assay [1] is 0.0179; in assay [2], -0.009; in assay [3], -0.0489; with NCI-H2795 (Mesothelioma) [4], 0.0277; in assay [5], 0.0403; in assay [6], 0.0122. Moreover, the Bliss excess is -0.0156 in the assay with Mewo (Melanoma), 0.0464 in assay [7], -0.104 in the assay on HMV-II (Melanoma) and -0.0107 in assay [8]. The “combination Emax” value in the assay on NCI-H2461 (Mesothelioma) was 0.594; in assay [9], 0.837; with NCI-H28 (Mesothelioma), 0.772; with NCI-H2795 (Mesothelioma) [10] it was 0.918; in assay [11], 0.888; in assay [12], 0.757. The “combination Emax” value in assay [13] worked out at 0.505; in assay [14], 0.226; in assay [15], 0.776; in assay [16] it was 0.285.

Take `C[C@@H](Nc1cc(F)cc(F)c1)c1cc(C(=O)N(C)C)cc2c(=O)cc(N3CCOCC3)oc12` [AZD8186] + CC(=O)c1c(C)c2cnc(Nc3ccc(N4CCNCC4)cn3)nc2n(C2CCCC2)c1=O [Palbociclib] (first compound max 10 µM, 7x7, partner max 10 µM): the Bliss excess in assay [1] is 0.0396; in [2], -0.0616; in [3], -0.025; with NCI-H2795 (Mesothelioma) [4], 0.0582; in [5] it was 0.0121; in [6], 0.0133. In addition, the Bliss excess in the assay on Mewo (Melanoma) is -0.0155; in [7], 0.0035; with HMV-II (Melanoma), 0.0265; in assay [8], -0.0142. Also, the “combination Emax” value in the assay on NCI-H2461 (Mesothelioma) stood at 0.447; in assay [9], 0.651; in the assay on NCI-H28 (Mesothelioma), 0.434; in the assay with NCI-H2795 (Mesothelioma) [10], 0.53; in assay [11], 0.755; in assay [12], 0.589. Moreover, the “combination Emax” value came out at 0.736 in assay [13], 0.333 in assay [14], 0.571 in assay [15] and 0.247 in [16].

Turning to `CN(CCO)CC[C@H](CSc1ccccc1)Nc1ccc(S(=O)(=O)NC(=O)c2ccc(N3CCC([C@@H](O)c4ccccc4-c4ccc(Cl)cc4)CC3)cc2)cc1S(=O)(=O)C(F)(F)F` [AZD4320] + C[C@@H](Nc1cc(F)cc(F)c1)c1cc(C(=O)N(C)C)cc2c(=O)cc(N3CCOCC3)oc12 [AZD8186] (first compound max 1 µM, 7x7, partner max 3 µM), the Bliss excess in assay [1] is 0.0735; in [2] it was -0.0192; in assay [3], -0.0107; with NCI-H2795 (Mesothelioma) [4], 0.0426; in [5], -0.0208; in assay [6] it was 0.0676. Besides, the Bliss excess in the assay on Mewo (Melanoma) was 0.0471; in assay [7] it was -0.0447; with HMV-II (Melanoma), -0.0397; in [8] it was -0.0505. Besides, the “combination Emax” value in the assay with NCI-H2461 (Mesothelioma) was determined as 0.337; in assay [9] it was 0.887; in the assay with NCI-H28 (Mesothelioma), 0.297; with NCI-H2795 (Mesothelioma) [10] it was 0.779; in [11], 0.593; in assay [12], 0.361. Moreover, the “combination Emax” value in assay [13] amounted to 0.6; in assay [14] it was 0.847; in assay [15], 0.789; in assay [16], 0.552.
